{"source": "patent US11203601B2", "about": "“Tricyclic compounds as glycogen synthase kinase 3 (GSK3) inhibitors and uses thereof” (The Broad Institute, Inc., priority 2017, dated 2021)", "experiment_in_all_cases": "Carna kinome panel", "format_in_all_cases": "biochemical", "key": {"CDK2/CycA2": {"biological_target": "CDK2/CycA2 (Homo sapiens (Human), UniProt P24941)", "excerpt": "(§1) 2) Off-Chip Mobility Shift Assay (MSA)."}, "CDK2/CycE1": {"biological_target": "CDK2/CycE1 (Homo sapiens (Human), UniProt P24941)", "excerpt": "as §1"}, "CDK3/CycE1": {"biological_target": "CDK3/CycE1 (Homo sapiens (Human), UniProt Q00526)", "excerpt": "as §1"}, "CDK9/CycT1": {"biological_target": "CDK9/CycT1 (Homo sapiens (Human), UniProt P50750)", "sequence (P50750 whole entry, looked up)": "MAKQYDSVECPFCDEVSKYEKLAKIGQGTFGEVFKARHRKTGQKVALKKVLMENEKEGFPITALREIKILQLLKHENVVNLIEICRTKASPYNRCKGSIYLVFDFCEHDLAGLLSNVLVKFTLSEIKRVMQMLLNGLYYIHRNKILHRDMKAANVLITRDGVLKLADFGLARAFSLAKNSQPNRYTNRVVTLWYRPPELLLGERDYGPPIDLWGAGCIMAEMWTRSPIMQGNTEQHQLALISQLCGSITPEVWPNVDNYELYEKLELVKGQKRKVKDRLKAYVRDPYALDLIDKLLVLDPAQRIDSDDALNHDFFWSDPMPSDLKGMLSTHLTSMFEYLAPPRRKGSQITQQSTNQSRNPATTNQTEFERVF", "sequence (O60563 whole entry partner, looked up)": "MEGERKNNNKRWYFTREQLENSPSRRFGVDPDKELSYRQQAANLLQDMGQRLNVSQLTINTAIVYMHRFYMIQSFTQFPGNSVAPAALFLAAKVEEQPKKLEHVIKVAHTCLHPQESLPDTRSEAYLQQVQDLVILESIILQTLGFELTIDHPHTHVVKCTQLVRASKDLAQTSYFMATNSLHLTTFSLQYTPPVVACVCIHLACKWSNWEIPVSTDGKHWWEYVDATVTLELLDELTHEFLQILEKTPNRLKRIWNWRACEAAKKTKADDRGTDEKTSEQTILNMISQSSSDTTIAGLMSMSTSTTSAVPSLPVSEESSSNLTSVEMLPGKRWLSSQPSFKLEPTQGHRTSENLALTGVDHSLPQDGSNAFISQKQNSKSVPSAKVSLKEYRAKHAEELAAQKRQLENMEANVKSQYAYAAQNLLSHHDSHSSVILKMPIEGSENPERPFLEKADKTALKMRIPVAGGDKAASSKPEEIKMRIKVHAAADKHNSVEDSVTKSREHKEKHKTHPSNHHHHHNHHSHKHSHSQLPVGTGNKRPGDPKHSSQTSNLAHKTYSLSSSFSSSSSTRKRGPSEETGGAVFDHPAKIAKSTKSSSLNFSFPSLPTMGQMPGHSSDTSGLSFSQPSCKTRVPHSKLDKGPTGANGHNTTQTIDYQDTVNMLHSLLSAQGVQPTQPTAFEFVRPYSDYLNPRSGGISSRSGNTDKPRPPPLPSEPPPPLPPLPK", "excerpt": "as §1"}, "PIK3CA/PIK3R1": {"biological_target": "PIK3CA/PIK3R1 (Homo sapiens (Human), UniProt P42336)", "sequence (P42336 whole entry, looked up)": "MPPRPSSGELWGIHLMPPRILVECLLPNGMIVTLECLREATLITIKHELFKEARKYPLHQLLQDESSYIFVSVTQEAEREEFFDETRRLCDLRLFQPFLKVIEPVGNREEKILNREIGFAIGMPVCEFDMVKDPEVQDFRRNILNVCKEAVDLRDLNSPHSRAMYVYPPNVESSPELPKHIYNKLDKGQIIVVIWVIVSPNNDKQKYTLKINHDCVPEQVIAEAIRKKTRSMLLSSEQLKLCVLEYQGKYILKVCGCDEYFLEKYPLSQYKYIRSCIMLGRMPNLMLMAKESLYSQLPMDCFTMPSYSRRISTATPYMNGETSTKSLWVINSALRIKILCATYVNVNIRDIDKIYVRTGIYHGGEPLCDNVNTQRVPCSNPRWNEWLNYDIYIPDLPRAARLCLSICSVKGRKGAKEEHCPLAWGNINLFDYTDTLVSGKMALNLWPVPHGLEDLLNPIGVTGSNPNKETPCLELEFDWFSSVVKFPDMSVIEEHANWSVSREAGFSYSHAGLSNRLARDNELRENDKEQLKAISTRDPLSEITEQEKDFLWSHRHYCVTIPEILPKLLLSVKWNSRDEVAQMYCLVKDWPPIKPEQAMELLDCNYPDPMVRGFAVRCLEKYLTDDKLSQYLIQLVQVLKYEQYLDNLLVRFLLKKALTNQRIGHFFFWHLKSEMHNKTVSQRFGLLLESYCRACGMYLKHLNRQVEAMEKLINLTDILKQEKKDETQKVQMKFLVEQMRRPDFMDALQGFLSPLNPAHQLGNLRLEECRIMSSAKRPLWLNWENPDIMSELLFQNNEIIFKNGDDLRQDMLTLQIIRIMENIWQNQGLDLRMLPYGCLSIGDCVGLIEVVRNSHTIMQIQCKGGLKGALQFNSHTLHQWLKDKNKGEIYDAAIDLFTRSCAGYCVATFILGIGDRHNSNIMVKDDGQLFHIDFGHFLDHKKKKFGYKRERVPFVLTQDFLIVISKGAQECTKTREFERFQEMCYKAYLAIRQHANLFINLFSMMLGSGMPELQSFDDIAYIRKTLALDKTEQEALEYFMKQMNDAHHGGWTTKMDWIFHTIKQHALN", "sequence (P27986 whole entry partner, looked up)": "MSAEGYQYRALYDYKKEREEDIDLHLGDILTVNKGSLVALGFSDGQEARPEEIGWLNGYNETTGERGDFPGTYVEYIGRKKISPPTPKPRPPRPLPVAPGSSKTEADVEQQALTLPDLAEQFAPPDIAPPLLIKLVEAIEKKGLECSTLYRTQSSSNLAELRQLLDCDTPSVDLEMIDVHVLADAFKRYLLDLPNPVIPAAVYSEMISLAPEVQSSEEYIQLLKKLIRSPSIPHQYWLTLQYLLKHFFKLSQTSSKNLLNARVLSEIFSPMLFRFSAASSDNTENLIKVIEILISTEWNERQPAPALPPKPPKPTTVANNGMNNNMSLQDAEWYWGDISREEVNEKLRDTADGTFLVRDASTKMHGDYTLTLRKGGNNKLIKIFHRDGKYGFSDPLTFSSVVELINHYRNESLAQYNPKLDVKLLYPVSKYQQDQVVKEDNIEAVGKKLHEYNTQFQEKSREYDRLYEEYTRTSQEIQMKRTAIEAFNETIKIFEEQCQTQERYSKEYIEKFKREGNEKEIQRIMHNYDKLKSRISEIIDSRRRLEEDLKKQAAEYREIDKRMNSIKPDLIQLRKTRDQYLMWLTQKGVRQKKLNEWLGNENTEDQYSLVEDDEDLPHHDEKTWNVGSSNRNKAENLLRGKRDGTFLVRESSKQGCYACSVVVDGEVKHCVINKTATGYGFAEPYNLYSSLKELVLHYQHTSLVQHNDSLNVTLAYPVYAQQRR", "excerpt": "as §1"}, "EPHA7": {"biological_target": "EPHA7 (Homo sapiens (Human), UniProt Q15375)", "conditions": "read-out: % Inhibition at 10 μM of the test compound"}, "CDK7/CycH/MAT1": {"biological_target": "CDK7/CycH/MAT1 (Homo sapiens (Human), UniProt P50613)", "conditions": "read-out: % Inhibition at 10 μM of the test compound"}, "EGFR(L858R)": {"biological_target": "EGFR(L858R) (Homo sapiens (Human), UniProt P00533, L858R)", "conditions": "read-out: % Inhibition at 10 μM of the test compound"}, "PAK4": {"biological_target": "PAK4 (Homo sapiens (Human), UniProt O96013)", "conditions": "read-out: % Inhibition at 10 μM of the test compound"}, "EPHA5": {"biological_target": "EPHA5 (Homo sapiens (Human), UniProt P54756)", "conditions": "read-out: % Inhibition at 10 μM of the test compound"}, "AMPKα1/β1/γ1": {"biological_target": "AMPKα1/β1/γ1 (Homo sapiens (Human), UniProt Q13131)", "conditions": "read-out: % Inhibition at 10 μM of the test compound"}, "CHK1": {"biological_target": "CHK1 (Homo sapiens (Human), UniProt O14757)", "conditions": "read-out: % Inhibition at 10 μM of the test compound"}, "JAK3": {"biological_target": "JAK3 (Homo sapiens (Human), UniProt P52333)", "sequence (P52333 whole entry)": "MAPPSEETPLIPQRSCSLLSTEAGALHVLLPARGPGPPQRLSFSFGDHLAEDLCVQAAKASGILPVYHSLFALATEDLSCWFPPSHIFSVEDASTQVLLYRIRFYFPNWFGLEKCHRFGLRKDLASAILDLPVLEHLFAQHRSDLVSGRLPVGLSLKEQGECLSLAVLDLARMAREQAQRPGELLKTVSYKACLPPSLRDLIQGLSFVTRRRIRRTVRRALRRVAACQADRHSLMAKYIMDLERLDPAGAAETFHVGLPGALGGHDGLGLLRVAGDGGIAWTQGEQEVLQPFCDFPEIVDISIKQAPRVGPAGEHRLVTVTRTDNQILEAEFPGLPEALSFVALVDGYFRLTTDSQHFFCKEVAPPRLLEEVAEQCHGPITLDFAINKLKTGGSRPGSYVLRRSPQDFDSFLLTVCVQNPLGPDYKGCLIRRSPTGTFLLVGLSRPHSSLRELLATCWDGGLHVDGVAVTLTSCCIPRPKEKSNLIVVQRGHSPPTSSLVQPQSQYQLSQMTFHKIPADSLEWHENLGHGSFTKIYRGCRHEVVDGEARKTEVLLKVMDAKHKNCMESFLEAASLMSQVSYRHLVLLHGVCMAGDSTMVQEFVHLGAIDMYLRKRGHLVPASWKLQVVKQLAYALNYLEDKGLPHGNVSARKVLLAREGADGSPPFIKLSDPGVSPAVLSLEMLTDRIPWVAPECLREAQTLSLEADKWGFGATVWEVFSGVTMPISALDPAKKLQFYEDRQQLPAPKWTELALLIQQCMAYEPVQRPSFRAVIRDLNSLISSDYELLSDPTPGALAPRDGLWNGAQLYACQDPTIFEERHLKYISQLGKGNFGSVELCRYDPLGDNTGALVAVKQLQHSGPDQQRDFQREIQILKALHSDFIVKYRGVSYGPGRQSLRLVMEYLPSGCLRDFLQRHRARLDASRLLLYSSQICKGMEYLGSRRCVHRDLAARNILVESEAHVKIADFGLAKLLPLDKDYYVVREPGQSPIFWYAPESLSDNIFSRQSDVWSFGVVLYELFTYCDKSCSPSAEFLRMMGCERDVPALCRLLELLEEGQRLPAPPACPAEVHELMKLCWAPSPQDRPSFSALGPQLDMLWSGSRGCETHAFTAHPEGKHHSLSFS", "conditions": "read-out: % Inhibition at 10 μM of the test compound"}, "BRAF_Cascade": {"biological_target": "BRAF_Cascade (Homo sapiens (Human), UniProt P15056)", "conditions": "read-out: % Inhibition at 10 μM of the test compound"}, "Erk1": {"biological_target": "Erk1 (Homo sapiens (Human), UniProt P27361)", "conditions": "read-out: % Inhibition at 10 μM of the test compound"}, "INSR": {"biological_target": "INSR (Homo sapiens (Human), UniProt P06213)", "conditions": "read-out: % Inhibition at 10 μM of the test compound"}, "EML4-ALK": {"biological_target": "EML4-ALK (Homo sapiens (Human), UniProt Q9UM73)", "conditions": "read-out: % Inhibition at 10 μM of the test compound"}, "MAP2K3_Cascade": {"biological_target": "MAP2K3_Cascade (Homo sapiens (Human), UniProt P46734)", "conditions": "read-out: % Inhibition at 10 μM of the test compound"}, "DLK_Cascade": {"biological_target": "DLK_Cascade (Homo sapiens (Human), UniProt Q12852)", "conditions": "read-out: % Inhibition at 10 μM of the test compound"}, "IGF1R": {"biological_target": "IGF1R (Homo sapiens (Human), UniProt P08069)", "conditions": "read-out: % Inhibition at 10 μM of the test compound"}, "PIM3": {"biological_target": "PIM3 (Homo sapiens (Human), UniProt Q86V86)", "conditions": "read-out: % Inhibition at 10 μM of the test compound"}, "ABL(T315I)": {"biological_target": "ABL(T315I) (Homo sapiens (Human), UniProt P00519, T315I)", "conditions": "read-out: % Inhibition at 10 μM of the test compound"}, "BRK": {"biological_target": "BRK (Homo sapiens (Human), UniProt Q13882)", "conditions": "read-out: % Inhibition at 10 μM of the test compound"}, "ITK": {"biological_target": "ITK (Homo sapiens (Human), UniProt Q08881)", "conditions": "read-out: % Inhibition at 10 μM of the test compound"}, "EPHA2": {"biological_target": "EPHA2 (Homo sapiens (Human), UniProt P29317)", "conditions": "read-out: % Inhibition at 10 μM of the test compound"}, "AurB": {"biological_target": "AurB (Homo sapiens (Human), UniProt Q96GD4)", "sequence (Q96GD4 whole entry)": "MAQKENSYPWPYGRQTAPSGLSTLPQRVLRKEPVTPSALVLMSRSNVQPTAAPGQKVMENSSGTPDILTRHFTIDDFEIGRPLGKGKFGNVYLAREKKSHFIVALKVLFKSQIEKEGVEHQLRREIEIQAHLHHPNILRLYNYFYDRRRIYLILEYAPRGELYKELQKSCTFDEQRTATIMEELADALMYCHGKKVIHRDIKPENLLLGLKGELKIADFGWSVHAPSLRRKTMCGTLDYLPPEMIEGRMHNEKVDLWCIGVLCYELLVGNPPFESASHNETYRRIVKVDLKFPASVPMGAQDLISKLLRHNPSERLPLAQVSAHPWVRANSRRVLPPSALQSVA", "conditions": "read-out: % Inhibition at 10 μM of the test compound"}, "MSK1": {"biological_target": "MSK1 (Homo sapiens (Human), UniProt O75582)", "conditions": "read-out: % Inhibition at 10 μM of the test compound"}, "NDR2": {"biological_target": "NDR2 (Homo sapiens (Human), UniProt Q9Y2H1)", "conditions": "read-out: % Inhibition at 10 μM of the test compound"}, "TXK": {"biological_target": "TXK (Homo sapiens (Human), UniProt P42681)", "conditions": "read-out: % Inhibition at 10 μM of the test compound"}, "MARK1": {"biological_target": "MARK1 (Homo sapiens (Human), UniProt Q9P0L2)", "conditions": "read-out: % Inhibition at 10 μM of the test compound"}, "PYK2": {"biological_target": "PYK2 (Homo sapiens (Human), UniProt Q14289)", "conditions": "read-out: % Inhibition at 10 μM of the test compound"}, "ALK(G1202R)": {"biological_target": "ALK(G1202R) (Homo sapiens (Human), UniProt Q9UM73, G1202R)", "conditions": "read-out: % Inhibition at 10 μM of the test compound"}, "SYK": {"biological_target": "SYK (Homo sapiens (Human), UniProt P43405)", "conditions": "read-out: % Inhibition at 10 μM of the test compound"}, "EGFR(L861Q)": {"biological_target": "EGFR(L861Q) (Homo sapiens (Human), UniProt P00533, L861Q)", "conditions": "read-out: % Inhibition at 10 μM of the test compound"}, "FES": {"biological_target": "FES (Homo sapiens (Human), UniProt P07332)", "conditions": "read-out: % Inhibition at 10 μM of the test compound"}, "ALK(R1275Q)": {"biological_target": "ALK(R1275Q) (Homo sapiens (Human), UniProt Q9UM73, R1275Q)", "conditions": "read-out: % Inhibition at 10 μM of the test compound"}, "CDC7/ASK": {"biological_target": "CDC7/ASK (Homo sapiens (Human), UniProt O00311)", "conditions": "read-out: % Inhibition at 10 μM of the test compound"}, "PKCθ": {"biological_target": "PKCθ (Homo sapiens (Human), UniProt Q04759)", "sequence (Q04759 whole entry)": "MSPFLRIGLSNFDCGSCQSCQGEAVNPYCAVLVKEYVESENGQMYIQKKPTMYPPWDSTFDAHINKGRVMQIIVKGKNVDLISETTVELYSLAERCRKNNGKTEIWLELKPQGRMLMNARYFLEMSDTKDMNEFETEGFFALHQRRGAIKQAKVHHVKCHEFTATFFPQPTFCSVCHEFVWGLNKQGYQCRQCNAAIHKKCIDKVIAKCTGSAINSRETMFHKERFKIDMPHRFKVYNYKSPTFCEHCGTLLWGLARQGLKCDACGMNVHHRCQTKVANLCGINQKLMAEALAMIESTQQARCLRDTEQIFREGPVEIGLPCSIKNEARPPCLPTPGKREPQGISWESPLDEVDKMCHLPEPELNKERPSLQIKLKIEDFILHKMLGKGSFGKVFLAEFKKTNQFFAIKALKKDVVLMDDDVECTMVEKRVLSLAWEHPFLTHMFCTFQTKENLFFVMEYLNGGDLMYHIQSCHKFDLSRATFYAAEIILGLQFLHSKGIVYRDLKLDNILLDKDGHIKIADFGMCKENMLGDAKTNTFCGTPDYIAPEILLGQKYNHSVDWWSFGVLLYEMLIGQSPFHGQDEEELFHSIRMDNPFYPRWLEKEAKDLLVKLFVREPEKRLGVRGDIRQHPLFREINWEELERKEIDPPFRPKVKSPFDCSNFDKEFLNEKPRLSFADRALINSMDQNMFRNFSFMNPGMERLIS", "conditions": "read-out: % Inhibition at 10 μM of the test compound"}, "[1]": {"conditions": "read-out: % Inhibition at 10 μM of the test compound"}}, "data": [{"smiles": "CCC1(c2ccccc2)C2=C(CC(C)(C)CC2=O)Nc2ncsc21", "note": "(stereo not shown) [Compound 1, 9-Ethyl-6,6-dimethyl-9-phenyl-5,6,7,9-tetrahydrothiazolo[4,5-b]quinolin-8(4H)-one]", "values": [{"measurement": "IC50", "setting": "CDK2/CycA2", "result": 6.91, "unit": "µM"}, {"measurement": "inhibition at 10 µM", "setting": "CDK2/CycA2; [1]", "result": 58.8, "unit": "%"}, {"measurement": "IC50", "setting": "CDK2/CycE1", "result": 8.52, "unit": "µM"}, {"measurement": "inhibition at 10 µM", "setting": "CDK2/CycE1; [1]", "result": 53.4, "unit": "%"}, {"measurement": "IC50", "setting": "CDK3/CycE1", "result": 6.22, "unit": "µM"}, {"measurement": "inhibition at 10 µM", "setting": "CDK3/CycE1; [1]", "result": 55.5, "unit": "%"}, {"measurement": "IC50", "setting": "CDK9/CycT1", "result": 6.48, "unit": "µM"}, {"measurement": "inhibition at 10 µM", "setting": "CDK9/CycT1; [1]", "result": 60.5, "unit": "%"}, {"measurement": "IC50", "setting": "PIK3CA/PIK3R1", "result": "> 10", "unit": "µM"}, {"measurement": "inhibition at 10 µM", "setting": "PIK3CA/PIK3R1; [1]", "result": 65.1, "unit": "%"}, {"measurement": "inhibition at 10 µM", "setting": "EPHA7", "result": 33.9, "unit": "%"}, {"measurement": "inhibition at 10 µM", "setting": "CDK7/CycH/MAT1", "result": 22.6, "unit": "%"}, {"measurement": "inhibition at 10 µM", "setting": "EGFR(L858R)", "result": 22.2, "unit": "%"}, {"measurement": "inhibition at 10 µM", "setting": "PAK4", "result": 17, "unit": "%"}, {"measurement": "inhibition at 10 µM", "setting": "EPHA5", "result": 9.3, "unit": "%"}, {"measurement": "inhibition at 10 µM", "setting": "AMPKα1/β1/γ1", "result": 7.6, "unit": "%"}, {"measurement": "inhibition at 10 µM", "setting": "CHK1", "result": 7, "unit": "%"}, {"measurement": "inhibition at 10 µM", "setting": "JAK3", "result": 6.9, "unit": "%"}, {"measurement": "inhibition at 10 µM", "setting": "BRAF_Cascade", "result": 6.2, "unit": "%"}, {"measurement": "inhibition at 10 µM", "setting": "Erk1", "result": 5.6, "unit": "%"}, {"measurement": "inhibition at 10 µM", "setting": "INSR", "result": 4.1, "unit": "%"}, {"measurement": "inhibition at 10 µM", "setting": "EML4-ALK", "result": 2.9, "unit": "%"}, {"measurement": "inhibition at 10 µM", "setting": "MAP2K3_Cascade", "result": 2.9, "unit": "%"}, {"measurement": "inhibition at 10 µM", "setting": "DLK_Cascade", "result": 2.5, "unit": "%"}, {"measurement": "inhibition at 10 µM", "setting": "IGF1R", "result": 2, "unit": "%"}, {"measurement": "inhibition at 10 µM", "setting": "PIM3", "result": 1.1, "unit": "%"}, {"measurement": "inhibition at 10 µM", "setting": "ABL(T315I)", "result": 0.4, "unit": "%"}, {"measurement": "inhibition at 10 µM", "setting": "BRK", "result": 0.3, "unit": "%"}, {"measurement": "inhibition at 10 µM", "setting": "ITK", "result": 0, "unit": "%"}, {"measurement": "inhibition at 10 µM", "setting": "EPHA2", "result": -0.3, "unit": "%"}, {"measurement": "inhibition at 10 µM", "setting": "AurB", "result": -0.4, "unit": "%"}, {"measurement": "inhibition at 10 µM", "setting": "MSK1", "result": -1, "unit": "%"}, {"measurement": "inhibition at 10 µM", "setting": "NDR2", "result": -1.2, "unit": "%"}, {"measurement": "inhibition at 10 µM", "setting": "TXK", "result": -1.3, "unit": "%"}, {"measurement": "inhibition at 10 µM", "setting": "MARK1", "result": -1.7, "unit": "%"}, {"measurement": "inhibition at 10 µM", "setting": "PYK2", "result": -3.1, "unit": "%"}, {"measurement": "inhibition at 10 µM", "setting": "ALK(G1202R)", "result": -5, "unit": "%"}, {"measurement": "inhibition at 10 µM", "setting": "SYK", "result": -5.8, "unit": "%"}, {"measurement": "inhibition at 10 µM", "setting": "EGFR(L861Q)", "result": -6.1, "unit": "%"}, {"measurement": "inhibition at 10 µM", "setting": "FES", "result": -6.2, "unit": "%"}, {"measurement": "inhibition at 10 µM", "setting": "ALK(R1275Q)", "result": -8, "unit": "%"}, {"measurement": "inhibition at 10 µM", "setting": "CDC7/ASK", "result": -9.1, "unit": "%"}, {"measurement": "inhibition at 10 µM", "setting": "PKCθ", "result": -11.2, "unit": "%"}]}]}
